Laboratory results: patent US20200246308A1, “SYNERGISTIC COMBINATIONS OF UROLITHINS A AND B FOR IMPROVING COGNITIVE CAPACITY OR COGNITIVE FUNCTION” (Natreon, Inc., priority 2018, published 2020)

Columns and labels:
[1] = biological target: T1, recombinant human Acetylcholinesterase-induced β-Amyloid (Aβ40) Aggregation (Homo sapiens, UniProt P22303); test: Inhibition of human recombinant AChE-induced β-amyloid peptide aggregation, ThT method; format: biochemical; settings: test compounds 50 μM, B:A in μM, 48 h
T1 construct: purchased Sigma Aldrich
Description: The Aβ1-40 (10 μM and 30 μM) was incubated alone and independently with different concentrations of test compounds in the ratios shown in Tables 6 and 7, respectively.
2 μL of different concentrations of Aβ40 (10 and 30 μM) was incubated with 16 μL of AChE in the presence of different ratio of test compounds to obtain final concentrations of 30 or 10 μM Aβ40, […], 10, 20, 50 μM test compounds and 2 μL assay buffer ([…]). The mixture was incubated at room temperature for 24 or 48 hr in dark (Time period may be changed according to experiment).
Fluorescence intensities were obtained for Aβ40 aggregation in the presence of inhibitors, in the absence of inhibitors and the blanks or solvent control. After incubation, 178 μL of 20 μM ThT was added.
The percentage inhibition of the AChE-induced Aβ1-40 aggregation was calculated as follows.
Chemical reagents and starting materials were employed as above.

Human recombinant AChE = biological target: T2, Human recombinant AChE (Homo sapiens, UniProt P22303); test: In-vitro human recombinant AChE inhibition assay, Ellman method; format: biochemical; settings: Table 10
T2 construct: purchased Sigma Aldrich
Excerpt: In-vitro human recombinant AChE inhibition assay: Procedure described by Ellman et al. was used after some modification for AChE inhibition assay. Human recombinant AChE was purchased from Sigma Aldrich (St. Louis, Mo.). Acetylthiocholine iodide (ATCI), 5,5′-dithiobis (2-nitrobenzoic acid) (DTNB-Ellman's reagent) were purchased from Himedia Pvt. Ltd. (New Delhi, India). Donepezil was used as positive control groups. Tris-HCl buffer (pH 8) was used to perform the in-vitro assay.
(§1) Further, substrate i.e. ATCI (15 mM, 30 μL) was added and it was incubated for additional 30 min. Finally 160 μL (1.5 mM) of DTNB was added and the absorbance was recorded at 415 nm using Epoch microplate reader (BioTek). The IC50 value was calculated using absorbance obtained from the test and standard compounds. The assay was performed in triplicate and in three independent runs (see Equation 1).

[2] = biological target: T3, AchE from Electrophorus electricus (electric eel) (Electrophorus electricus, UniProt O42275); test: In-vitro AChE inhibition assay, Ellman method; format: biochemical
T3 construct: purchased Sigma Aldrich
Excerpt: AchE from Electrophorus electricus (electric eel) CAS: 9000-81-1 was procured from Sigma Aldrich (St. Louis, Mo., USA). 5,5′-dithiobis (2-nitrobenzoic acid) (DTNB-Ellman's reagent) and acetylcholine iodide, (AChI) were procured from local suppliers (HiMedia, Pvt. Ltd., New Delhi, India). All other chemicals and reagents were available commercially from local suppliers (Merck Pvt. Ltd., New Delhi and HiMedia Laboratories Pvt Ltd., New Delhi, India) and were of analytical grade.
The procedure described by Ellman et al. was used after some modification for AChE inhibition assay. Acetylthiocholine iodide (ATCI), 5,5′-dithiobis (2-nitrobenzoic acid) (DTNB-Ellman's reagent) were purchased from Himedia. Donepezil was used as positive control. Tris-HCl buffer (pH 8) was used to perform the in-vitro assay. […] 50 μL of AChE (0.22 U mL^−1) and 10 μL of test or standard compounds were incubated in 96 well plate for 30 min. at room temperature (See, Table 3).
as §1, with “runs.” for “runs (see Equation 1).”
Percentage inhibition=(Control−Test)/Control×100 Equation (1)
50 μL of AChE (0.22 U mL^−1) and 10 μL of test or standard compounds were incubated in 96 well plate for 30 min. at room temperature.
as §1, with “triplicate” for “triplicate and in three independent runs”

[3] = tested on: acetylcholine (ACh) level in HIP tissue; test: Acetylcholine level in hippocampal tissue, Amplex Red kit (Example 9D); format: in vivo, Male Wistar rats; settings: p.o. 7 days: B 50, A 50, Donepezil 3, B:A 10:50 and 50:50, Shilajit 50 mg/kg
Description: Drug solution was freshly prepared in 0.3% CMC and administered by oral gavage once a day, for a period of 7 days. Briefly, the whole experiment was conducted for 8 days. Scopolamine (1 mg/kg), a muscarinic receptor antagonist, was dissolved in normal saline (0.9% NaCl) and administered intraperitoneally 1 h after drugs administration on seventh day.
Sample preparation: The animals were killed by decapitation and the brain tissues were dissected out in ice-cold conditions and stored at −80° C. until use. Tissue was homogenized in 1.0 ml of 0.1M perchloric acid with a Potter-Elvehjem homogenizer. The homogenate was kept in the polypropylene tubes for 15 min after which 40 μl of 4M potassium acetate was added to adjust the pH to 4.0 followed by centrifugation for 15 min at 4000×g. Supernatant was used to estimate acetylcholine and AChE activities.
Samples were prepared as in Example 9C. The amount of acetylcholine in brain tissues was measured using Amplex red assay kit (Molecular Probes, Inc., USA). An acetylcholine standard curve was used in each experiment. Briefly, the reactions are initiated by adding 0.1 ml of control (10 μM H2O2) and tissue homogenates were taken in two separate polypropylene tubes and then 0.1 ml working solution of 400 μM Amplex Red reagent containing 2 U/mL HRP, 0.2 U/mL choline oxidase and 1 U/mL acetylcholinesterase were added to each tube. After incubation for 45 min, the fluorescence was recorded with the help of spectrofluorometer at 530 nm excitation and 590 nm emission wavelengths. The protein content was determined using standard protocol (Lowry, et al., 1951).
Statistical analyses: The results were expressed as means±Standard Error mean (SEM). The intergroup variation was measured by one-way ANOVA followed by Student-Newman-Keuls test. Two-way followed by Bonferroni test was employed to discover the intergroup variation in Y maze test considering groups and arms as two independent variables. Statistical analysis was done by using Graph Pad prism version 5 (San Diego, Calif.). A level of p<0.05 was accepted as statistically significant.

[4] = Table 2, B:A ratios from mg/ml solutions
[5] = Table 5, Shilajit:B:A combinations from mg/ml solutions

T3 sequence (O42275 24-633): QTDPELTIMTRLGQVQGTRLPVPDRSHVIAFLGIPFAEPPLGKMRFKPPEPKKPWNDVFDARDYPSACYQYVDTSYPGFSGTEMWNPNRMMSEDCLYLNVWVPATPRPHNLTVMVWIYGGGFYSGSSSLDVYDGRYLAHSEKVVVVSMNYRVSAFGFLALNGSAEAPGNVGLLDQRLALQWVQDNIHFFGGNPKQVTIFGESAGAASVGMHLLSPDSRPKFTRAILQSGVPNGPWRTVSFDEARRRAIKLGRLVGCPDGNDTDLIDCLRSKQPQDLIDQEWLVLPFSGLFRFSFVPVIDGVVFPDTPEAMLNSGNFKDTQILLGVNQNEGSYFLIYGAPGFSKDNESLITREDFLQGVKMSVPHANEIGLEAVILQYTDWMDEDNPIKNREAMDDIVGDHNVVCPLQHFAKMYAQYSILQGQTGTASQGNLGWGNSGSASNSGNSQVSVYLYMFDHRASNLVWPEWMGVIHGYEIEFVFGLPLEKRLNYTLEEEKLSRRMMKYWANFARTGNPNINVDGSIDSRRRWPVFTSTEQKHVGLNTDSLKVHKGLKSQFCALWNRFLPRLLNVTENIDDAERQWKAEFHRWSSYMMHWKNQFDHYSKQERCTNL
T1 sequence (P22303 32-614): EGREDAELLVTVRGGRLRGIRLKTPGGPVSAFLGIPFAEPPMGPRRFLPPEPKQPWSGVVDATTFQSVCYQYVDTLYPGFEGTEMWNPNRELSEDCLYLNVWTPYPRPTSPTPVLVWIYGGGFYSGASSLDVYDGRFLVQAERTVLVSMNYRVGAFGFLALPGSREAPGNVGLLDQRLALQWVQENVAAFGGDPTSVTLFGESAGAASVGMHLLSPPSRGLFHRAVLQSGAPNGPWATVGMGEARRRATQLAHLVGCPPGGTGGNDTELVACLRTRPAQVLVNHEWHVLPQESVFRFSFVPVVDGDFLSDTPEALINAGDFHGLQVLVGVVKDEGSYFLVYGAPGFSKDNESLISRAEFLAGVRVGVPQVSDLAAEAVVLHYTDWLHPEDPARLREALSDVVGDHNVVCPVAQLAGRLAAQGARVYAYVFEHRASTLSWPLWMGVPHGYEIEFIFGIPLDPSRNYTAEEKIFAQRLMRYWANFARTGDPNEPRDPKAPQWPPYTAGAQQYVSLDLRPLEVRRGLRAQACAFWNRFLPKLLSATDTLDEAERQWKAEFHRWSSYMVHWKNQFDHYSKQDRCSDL
T2 sequence (P22303 32-614): as above

O=c1oc2cc(O)ccc2c2ccccc12 [Urolithin B, 3-hydroxy-dibenzo-alpha-pyrone]
inhibition of Aβ40 aggregation ([1]; Aβ40 30 μM): ~43%
inhibition of Aβ40 aggregation ([1]; amyloid beta 10 μM): ~46%
IC50 (Human recombinant AChE): 272.67 ± 42.11 µg/mL
IC50 [2, 4]: 0.1430 ± 0.0057 µg/mL
IC50 [2, 5]: 0.1430 ± 0.0057 µg/mL
Scopolamine-induced decrease in ACh level in HIP tissue [3]: attenuated the scopolamine induced decrease in ACh level

O=c1oc2cc(O)ccc2c2ccc(O)cc12 [Urolithin A, 3,8-dihydroxy-dibenzo-alpha-pyrone]
inhibition of Aβ40 aggregation ([1]; Aβ40 30 μM): ~30%
inhibition of Aβ40 aggregation ([1]; amyloid beta 10 μM): ~34%
IC50 (Human recombinant AChE): 410.50 ± 38.52 µg/mL
IC50 [2, 4]: 0.1793 ± 0.0092 µg/mL
IC50 [2, 5]: 0.1793 ± 0.0092 µg/mL
Scopolamine-induced decrease in ACh level in HIP tissue [3]: attenuated the scopolamine induced decrease in ACh level
